Test results reported in PMC9995496, “A screen for MeCP2-TBL1 interaction inhibitors using a luminescence-based assay” (Scientific Reports, 2023).
Structures can show the parent of a compound that is named as a salt.

tested on: PRKACA-PRKAR2A interaction (SmBiT-PRKACA / LgBiT-PRKAR2A), protein kinase A; design: NanoLuc complementation counter-screen in cell extract, PRKACA with PRKAR2A, loss of luminescence, detects NanoLuc interference; settings: 0.5 h, 20 µM; inhibitor

SMILES | Inh (PKA)
CN(Cc1cccc(-c2ccncc2)c1)C(=O)Oc1ccc(-c2ccc(C(N)=O)cc2)cc1 [UM0142148:01, WWL 70] | 11.8%

same assay, conditions: counter-screen for NanoLuc interference, 0.5 h, 20 µM, inhibitor, Inh (PKA)

SMILES | Inh (PKA)
O=C(/C=C/c1cccnc1)NCCCCC1CCN(C(=O)c2ccccc2)CC1 [UM0142102:01, FK 866 hydrochloride] | 0.5645%
CNCc1ccc(-c2[nH]c3cc(F)cc4c3c2CCNC4=O)cc1 [UM0142149:01, Rucaparib (free base)] | 8.491%

same assay, conditions: counter-screen for NanoLuc interference; 0.5 h, 20 µM; inhibitor

SMILES | Inh (PKA)
COc1cc(N2CCC(N)CC2)ccc1Nc1ncc(Cl)c(-c2c[nH]c3ccccc23)n1 [UM0142097:01, AZD-3463] | 51%
C[C@]12CC[C@H](O)CC1=CC[C@@H]1[C@@H]2CC[C@]2(C)C(n3cnc4ccccc43)=CC[C@@H]12 [UM0142098:01, TOK-001] | 15.03%
O=C(NC(NC(=S)Nc1ccc(F)c([N+](=O)[O-])c1)C(Cl)(Cl)Cl)C(c1ccccc1)c1ccccc1 (centres unmarked) [UM0142099:01, CGK733] | 35.68%
CN1CCN(c2ccc(Nc3cc(-c4cccc(-n5ccc6cc(C7CC7)cc(F)c6c5=O)c4CO)cn(C)c3=O)nc2)CC1 [UM0142104:01, RN486] | 0.8611%
O=C(NCc1ccc(Oc2ccccc2)cc1)c1nc(-c2cc(Br)c(O)c(Br)c2)no1 [UM0142105:01, IOWH-032] | 17.03%
Cc1cnc(NC(=O)Nc2cc(Br)c(C)cc2OC[C@@H]2CNCCO2)cn1 [UM0142106:01, LY2603618] | 6.637%
CN1CC[C@H](c2c(O)cc(O)c3c(=O)cc(-c4ccccc4Cl)oc23)[C@H](O)C1 [UM0142107:01, Flavopiridol hydrochloride] | 4.692%
CN(C)C(=O)c1cc2cnc(Nc3ccc(N4CCNCC4)cn3)nc2n1C1CCCC1 [UM0142108:01, LEE011] | 5.257%
CCCCCOC(=O)Nc1nc(=O)n([C@@H]2O[C@H](C)[C@@H](O)[C@H]2O)cc1F [UM0142109:01, Capecitabine] | 3.507%
N#C[C@@H]1C[C@@H]2C[C@@H]2N1C(=O)[C@@H](N)C12CC3CC(CC(O)(C3)C1)C2 [UM0142110:01, Saxagliptin] | 1.3%
Cc1nn(-c2ccccc2)c(C)c1/C=N/N1CCN(Cc2ccccc2)CC1 [UM0142111:01, SANT-1] | 15.15%
CC(C)[C@H]1C(=O)N[C@@H](CCCNC(=N)N)C(=O)NCC(=O)N[C@@H](CC(=O)O)C(=O)N[C@H](Cc2ccccc2)C(=O)N1C [UM0142112:01, Cilengitide] | 0.5722%
O=C1NCCCc2c1oc1ccc(O)cc21 [UM0142113:01, CID 755673] | 2.979%
CC[C@@H](N)CNc1ccnc(-c2cc(-c3cnn(C)c3)ccc2O)n1 [UM0142114:01, CRT 0066101] | 18.6%
O=c1ncn2nc(Sc3ccc(F)cc3F)ccc2c1-c1c(Cl)cccc1Cl [UM0142117:01, VX-745] | 8.434%
CN(c1ccccc1CNc1nc(Nc2ccc3c(c2)CC(=O)N3)ncc1C(F)(F)F)S(C)(=O)=O [UM0142118:01, PF-431396] | 63.93%
FC(F)(F)Oc1ccc2nc(-c3ccc(OCCOCCOc4ccc(-c5nc6ccc(OC(F)(F)F)cc6[nH]5)nc4)cn3)[nH]c2c1 [UM0142119:01, AI-10-49] | 39.19%
C=CC(=O)Nc1ccc(CN2C(=O)N(c3cc(OC)cc(OC)c3)Cc3cnc(Nc4ccc(N5CCN(C)CC5)cc4)nc32)cc1 [UM0142120:01, FIIN-2] | 9.452%
CC(C)(C)C(O)/C=C/c1ccc2c(c1)OCO2 (centres unmarked) [UM0142121:01, Stiripentol] | 12.44%
C=CC(=O)Nc1cccc(C)c1Nc1ncc2cc(-c3c(Cl)c(OC)cc(OC)c3Cl)ccc2n1 [UM0142122:01, BLU9931] | 48.23%
CCCC[S+]([O-])c1sc2nc(-c3cccs3)cc(-c3ccccc3)c2c1N (centres unmarked) [UM0142124:01, SW033291] | 33.39%

SMILES | Inh (PKA)
CC(C)(CCCCCC(O)CCCCCC(C)(C)C(=O)O)C(=O)O [UM0142125:01, ETC-1002] | 5.399%
CNC(=O)c1ccccc1Oc1nc(Nc2cc(OC)c(OC)c(OC)c2)ncc1Br [UM0142126:01, SBI-0206965] | 34.96%
CNc1ncc2cc(-c3cc(NC(=O)NCCC(C)(C)C)c(F)cc3C)c(C)nc2n1 [UM0142127:01, LY3009120] | 13.32%
CN(C)C/C=C/C(=O)Nc1cccc(C(=O)Nc2cccc(Nc3ncc(Cl)c(-c4c[nH]c5ccccc45)n3)c2)c1 [UM0142128:01, THZ2] | 74.86%
CN1CCN(C(=O)c2ccc3cc(CCNc4ncnc5ccc(C#N)cc45)ccc3c2)CC1 [UM0142129:01, Senexin B] | 3.385%
CN1C(=O)c2sccc2N(C)c2nc(Nc3ccc(S(N)(=O)=O)cc3)ncc21 [UM0142130:01, XMU-MP-1] | 6.005%
Cc1c(-c2c(-c3ccc(F)o3)sc3ncnc(O[C@H](Cc4ccccc4OCc4ccnn4CC(F)(F)F)C(=O)O)c23)ccc(OCCN2CCN(C)CC2)c1Cl [UM0142131:01, S63845] | 20.59%
COc1ccc(S(=O)(=O)N2CCC(N3CCC(C)CC3)CC2)cc1 [UM0142132:01, TASIN-1] | 4.343%
Cn1c2ccccc2c2c3c(c4c5ccccc5n(CCC#N)c4c21)C(=O)NC3=O [UM0142134:01, ICP 103] | 13.04%
Nc1cc(F)ccc1NC(=O)/C=C/c1cnn(C/C=C/c2ccccc2)c1 [UM0142135:01, RGFP966] | 7.983%
O=C(NCC1(c2nc(-c3ccccc3)cs2)CCOCC1)c1cccc(-c2noc(C(F)(F)F)n2)c1 [UM0142136:01, TMP269] | 21.99%
O=C(c1cccc(Cl)c1F)N1CCN(Cc2cccc(Nc3nccs3)n2)CC1 [UM0142137:01, MK-8745] | 20.15%
CSc1cccc(Nc2ncc3cc(-c4c(Cl)cccc4Cl)c(=O)n(C)c3n2)c1 [UM0142139:01, PD173955] | 37.99%
CCCCCCCCCCCCCCCCn1cc[n+](Cc2ccccc2)c1C [UM0142140:01, NH125] | 8.181%
C=CC(=O)Nc1cccc(Oc2nc(Nc3ccc(N4CCN(C)CC4)cc3)ncc2Cl)c1 [UM0142142:01, WZ3146] | 33.46%
CN(C)C/C=C/C(=O)Nc1ccc(C(=O)Nc2cccc(Nc3ncc(Cl)c(-c4c[nH]c5ccccc45)n3)c2)cc1 [UM0142143:01, THZ1] | 81.51%
C[C@@H]1COCCN1c1cc(=O)n2c(n1)N(Cc1cncc(Cl)c1)[C@H](C(F)(F)F)CC2 [UM0142144:01, SAR405] | 7.192%
O=C1N=C(NCc2cccs2)S/C1=C\c1ccc2ncccc2c1 [UM0142145:01, Ro 3306] | 23.14%
CN1CCC(Nc2nc(Nc3ccc(Oc4ccccc4)cc3)c3c(=O)[nH]cc(Br)c3n2)CC1 [UM0142146:01, G-749] | 37.05%
Cc1nc(Nc2cnn(C3CCNCC3)c2)nc2c1N(C)C(=O)c1cc3ccccc3cc1N2C [UM0142147:01, HTH-01-015] | 10.88%
